From patent US20130261077A1 (priority 2012, published 2013)

Columns and labels:
[1] = biological target: T1, FimH-CRD (Escherichia coli, UniProt P08191); experiment: Competitive binding assay by fluorescence polarization, assay 1 (compounds prepared by manual serial dilution)
T1 construct: The first 177 amino acids of the FimH protein; thrombin tag (printed as 'fusion protein with thrombin') (cleaved yes); made in house; host or cells: bacteria (pET21b plasmid)
Method in brief: (§1)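 Fluorescence-polarization competition of 5 nM Alexa 647 mannoside probe with 60 nM FimH-CRD (first 177 residues, tag removed) in Tris-Cl pH 7.0, NaCl, EDTA, β-ME, BSA, 2.5% DMSO, 5 h at RT in the dark. Twelve-point 3-fold titrations (0.4 nM–75 μM) in duplicate; Kd interpolated from displacement curves.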

[2] = biological target: T1, FimH-CRD; experiment: Competitive binding assay by fluorescence polarization, assay 2 (compounds prepared by robotics, plates frozen and thawed)
Method in brief: as §1

T1 sequence (P08191 22-177): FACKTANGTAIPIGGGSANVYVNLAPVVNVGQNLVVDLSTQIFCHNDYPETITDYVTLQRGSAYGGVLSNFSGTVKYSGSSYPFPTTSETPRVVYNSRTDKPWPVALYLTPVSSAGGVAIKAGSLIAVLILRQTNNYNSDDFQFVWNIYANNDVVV

Compound | IC50 [1] | Kd [1] | Kd [2]
Cn1cnc2ccc(-c3cccc([C@H]4O[C@H](CO)[C@@H](O)[C@H](O)[C@@H]4O)c3)cc21 [Compound 4, (2R,3S,4R,5S,6R)-2-(hydroxymethyl)-6-[3-(3-methylbenzimidazol-5-yl)phenyl]tetrahydropyran-3,4,5-triol] | 0.019 µM | 0.0051 ± 0.0001 µM | 0.0136 ± 0.0061 µM
OC[C@H]1O[C@H](c2cccc(-c3cncnc3)c2)[C@@H](O)[C@@H](O)[C@@H]1O [Compound 10, (2R,3S,4R,5S,6R)-2-(hydroxymethyl)-6-(3-pyrimidin-5-ylphenyl)tetrahydropyran-3,4,5-triol] | 0.099 µM | 0.0134 ± 0.0066 µM | 0.0101 ± 0.0006 µM
OC[C@H]1O[C@H](c2cccc(-c3cc4ccccc4s3)c2)[C@@H](O)[C@@H](O)[C@@H]1O [Compound 12, (2R,3S,4R,5S,6R)-2-[3-(benzothiophen-2-yl)phenyl]-6-(hydroxymethyl)tetrahydropyran-3,4,5-triol] | 0.067 µM | 0.0092 ± 0.0044 µM | 0.0117 ± 0.0061 µM
N#Cc1ccc(-c2cccc([C@H]3O[C@H](CO)[C@@H](O)[C@H](O)[C@@H]3O)c2)cc1 [Compound 22, 3′-((2R,3S,4R,5S,6R)-3,4,5-trihydroxy-6-(hydroxymethyl)tetrahydro-2H-pyran-2-yl)-[1,1′-biphenyl]-4-carbonitrile] | 0.049 µM | 0.0066 ± 0.0008 µM | 0.0142 ± 0.0111 µM
CNC(=O)c1cccc([C@H]2O[C@H](CO)[C@@H](O)[C@H](O)[C@@H]2O)c1 [Compound 35, N-methyl-3-((2R,3S,4R,5S,6R)-3,4,5-trihydroxy-6-(hydroxymethyl)tetrahydro-2H-pyran-2-yl)benzamide] | 0.172 µM | 0.0562 ± 0.0049 µM | 0.113 µM
CCCCNC(=O)c1cccc([C@H]2O[C@H](CO)[C@@H](O)[C@H](O)[C@@H]2O)c1 [Compound 38, N-butyl-3-((2R,3S,4R,5S,6R)-3,4,5-trihydroxy-6-(hydroxymethyl)tetrahydro-2H-pyran-2-yl)benzamide] |  | 0.0504 ± 0.0036 µM | 0.0724 ± 0.0348 µM
CNC(=O)c1cc(C(=O)NC)cc(-c2ccccc2[C@H]2O[C@H](CO)[C@@H](O)[C@H](O)[C@@H]2O)c1 [Compound 40, N^3,N^5-dimethyl-2′-((2R,3S,4R,5S,6R)-3,4,5-trihydroxy-6-(hydroxymethyl)tetrahydro-2H-pyran-2-yl)-[1,1′-biphenyl]-3,5-dicarboxamide] | 2.05 µM | 0.474 ± 0.0495 µM | 0.447 ± 0.49 µM
COc1cccc([C@H]2O[C@H](CO)[C@@H](O)[C@H](O)[C@@H]2O)c1 [Compound 44, (2R,3S,4R,5S,6R)-2-(hydroxymethyl)-6-(3-methoxyphenyl)tetrahydropyran-3,4,5-triol] | 0.156 µM | 0.0418 ± 0.0116 µM | 0.0504 ± 0.0101 µM
Cc1nnc(-c2ccc(-c3cccc([C@H]4O[C@H](CO)[C@@H](O)[C@H](O)[C@@H]4O)c3)cc2)o1 [Compound 48, (2R,3S,4R,5S,6R)-2-(hydroxymethyl)-6-[3-[4-(5-methyl-1,3,4-oxadiazol-2-yl)phenyl]phenyl]tetrahydropyran-3,4,5-triol] | 0.034 µM | < 0.005 µM | 0.0085 ± 0.0013 µM
COC(=O)c1cc(Oc2ccc([C@H]3O[C@H](CO)[C@@H](O)[C@H](O)[C@@H]3O)cc2)cc(C(=O)OC)c1 [Compound 53, dimethyl 5-(4-((2R,3S,4R,5S,6R)-3,4,5-trihydroxy-6-(hydroxymethyl)tetrahydro-2H-pyran-2-yl)phenoxy)isophthalate] | 0.025 µM | < 0.005 µM | 0.0157 ± 0.0102 µM
COC(=O)c1ccc(Oc2ccc([C@H]3O[C@H](CO)[C@@H](O)[C@H](O)[C@@H]3O)cc2)cc1 [Compound 54, methyl 4-(4-((2R,3S,4R,5S,6R)-3,4,5-trihydroxy-6-(hydroxymethyl)tetrahydro-2H-pyran-2-yl)phenoxy)benzoate] | 0.016 µM | < 0.005 µM | 0.0132 ± 0.0092 µM
Cc1nnc(-c2ccc(Oc3cccc([C@H]4O[C@H](CO)[C@@H](O)[C@H](O)[C@@H]4O)c3)cc2)o1 [Compound 60, (2R,3S,4R,5S,6R)-2-(hydroxymethyl)-6-[3-[4-(5-methyl-1,3,4-oxadiazol-2-yl)phenoxy]phenyl]tetrahydropyran-3,4,5-triol] | 0.031 µM | 0.0087 ± 0.0021 µM | 0.0107 ± 0.0053 µM
COC(=O)c1cc(C(=O)OC)cc(-c2cccc([C@H]3O[C@H](CO)[C@@H](O)[C@H](O)[C@@H]3O)c2)c1 [Compound 62, Dimethyl 3′-((2R,3S,4R,5S,6R)-3,4,5-trihydroxy-6-(hydroxymethyl)tetrahydro-2H-pyran-2-yl)-[1,1′-biphenyl]-3,5-dicarboxylate] |  | 0.0055 ± 0.0004 µM | 0.0076 ± 0.002 µM
CNC(=O)c1cc(Oc2cccc([C@H]3O[C@H](CO)[C@@H](O)[C@H](O)[C@@H]3O)c2)cc(C(=O)NC)c1 [Compound 64, N1,N3-dimethyl-5-(3-((2R,3S,4R,5S,6R)-3,4,5-trihydroxy-6-(hydroxymethyl)tetrahydro-2H-pyran-2-yl)phenoxy)isophthalamide] | 0.055 µM | 0.015 ± 0.0026 µM | 0.0207 ± 0.0168 µM
OC[C@H]1O[C@H](c2cc(O)ccc2Cl)[C@@H](O)[C@@H](O)[C@@H]1O [Compound 68, (2R,3S,4R,5S,6R)-2-(2-chloro-5-hydroxyphenyl)-6-(hydroxymethyl)tetrahydro-2H-pyran-3,4,5-triol] | 0.022 µM | 0.0221 ± 0.0101 µM | 0.035 ± 0.0212 µM
OC[C@H]1O[C@H](c2cccc(-c3cc(Cl)cc(Cl)c3)c2)[C@@H](O)[C@@H](O)[C@@H]1O [Compound 79, (2R,3S,4R,5S,6R)-2-[3-(3,5-Dichlorophenyl)phenyl]-6-(hydroxymethyl)tetrahydropyran-3,4,5-triol] |  | < 0.005 µM | 0.0128 ± 0.0009 µM
Cc1nnc(-c2cccc(-c3ccc([C@H]4O[C@H](CO)[C@@H](O)[C@H](O)[C@@H]4O)cc3)c2)o1 [Compound 130, (2R,3S,4R,5S,6R)-2-(hydroxymethyl)-6-[4-[3-(5-methyl-1,3,4-oxadiazol-2-yl)phenyl]phenyl]tetrahydropyran-3,4,5-triol] |  | < 0.005 µM | 0.0462 µM
O=[N+]([O-])c1ccc(Oc2cccc([C@H]3O[C@H](CO)[C@@H](O)[C@H](O)[C@@H]3O)c2)cn1 [Compound 257, (2R,3S,4R,5S,6R)-2-(hydroxymethyl)-6-[3-[(6-nitro-3-pyridyl)oxy]phenyl]tetrahydropyran-3,4,5-triol] |  |  | 0.0192 ± 0.0063 µM
Nc1ccc(Oc2cccc([C@H]3O[C@H](CO)[C@@H](O)[C@H](O)[C@@H]3O)c2)cn1 [Compound 258, (2R,3S,4R,5S,6R)-2-[3-[(6-amino-3-pyridyl)oxy]phenyl]-6-(hydroxymethyl)tetrahydropyran-3,4,5-triol] |  |  | 0.0319 ± 0.0063 µM
OCc1cccc([C@H]2O[C@H](CO)[C@@H](O)[C@H](O)[C@@H]2O)c1 [Compound 260, (2R,3S,4R,5S,6R)-2-(hydroxymethyl)-6-[3-(hydroxymethyl)phenyl]tetrahydropyran-3,4,5-triol] |  |  | 0.125 ± 0.0526 µM
COC(=O)c1ccc(OCc2cccc([C@H]3O[C@H](CO)[C@@H](O)[C@H](O)[C@@H]3O)c2)cc1 [Compound 261, methyl 4-[[3-[(2R,3S,4R,5S,6R)-3,4,5-trihydroxy-6-(hydroxymethyl)tetrahydropyran-2-yl]phenyl]methoxy]benzoate] |  |  | 0.0322 ± 0.0081 µM
OC[C@H]1O[C@H](c2cccc(COc3ccccc3)c2)[C@@H](O)[C@@H](O)[C@@H]1O [Compound 262, (2R,3S,4R,5S,6R)-2-(hydroxymethyl)-6-[3-(phenoxymethyl)phenyl]tetrahydropyran-3,4,5-triol] |  |  | 0.0266 ± 0.0114 µM
OC[C@H]1O[C@H](c2cccc(COc3cc(Cl)cc(Cl)c3)c2)[C@@H](O)[C@@H](O)[C@@H]1O [Compound 263, (2R,3S,4R,5S,6R)-2-[3-[(3,5-dichlorophenoxy)methyl]phenyl]-6-(hydroxymethyl)tetrahydropyran-3,4,5-triol] |  |  | 0.0223 ± 0.005 µM
CNC(=O)c1ccc(OCc2cccc([C@H]3O[C@H](CO)[C@@H](O)[C@H](O)[C@@H]3O)c2)cc1 [Compound 264, N-methyl-4-[[3-[(2R,3S,4R,5S,6R)-3,4,5-trihydroxy-6-(hydroxymethyl)tetrahydropyran-2-yl]phenyl]methoxy]benzamide] |  |  | 0.0308 ± 0.0091 µM
CC(C)C(=O)Nc1ccc(Oc2cccc([C@H]3O[C@H](CO)[C@@H](O)[C@H](O[C@H]4O[C@H](CO)[C@@H](O)[C@H](O)[C@@H]4O)[C@@H]3O)c2)cc1 [Compound 273, N-[4-[3-[(2R,3R,4R,5R,6R)-3,5-Dihydroxy-6-(hydroxymethyl)-4-[(2R,3S,4S,5S,6R)-3,4,5-trihydroxy-6-(hydroxymethyl)tetrahydropyran-2-yl]oxy-tetrahydropyran-2-yl]phenoxy]phenyl]-2-methyl-propanamide] | 0.038 µM | 0.0121 ± 0.0057 µM | 0.0218 ± 0.0052 µM
COC(=O)COc1cccc([C@H]2O[C@H](CO)[C@@H](O)[C@H](O[C@H]3O[C@H](CO)[C@@H](O)[C@H](O)[C@@H]3O)[C@@H]2O)c1 [Compound 286, Methyl 2-[3-[(2R,3R,4R,5R,6R)-3,5-dihydroxy-6-(hydroxymethyl)-4-[(2R,3S,4S,5S,6R)-3,4,5-trihydroxy-6-(hydroxymethyl)tetrahydropyran-2-yl]oxy-tetrahydropyran-2-yl]phenoxy]acetate] | 0.063 µM | 0.0174 ± 0.0048 µM | 0.0351 ± 0.0167 µM
OC[C@H]1O[C@H](c2cccc(Br)c2)[C@@H](O)[C@@H](O)[C@@H]1O [Intermediate C, (2R,3S,4R,5S,6R)-2-(3-bromophenyl)-6-(hydroxymethyl)tetrahydro-2H-pyran-3,4,5-triol] |  | 0.024 ± 0.005 µM | 0.027 µM
